The text below walks through data of patent publication US8211445B2, “PSM peptides as vaccine targets against methicillin-resistant Staphylococcus” (The United States of America, as represented by the …, priority 2007, dated 2012).

Assay [1] has as its system human neutrophils. In words: Priming of human neutrophils (surface expression of CD11b and gp91phox). Format: cell-based. Conditions: PSM-mec vs PSMα3; in the range of other α-type PSMs and δ-toxin, higher than β-type PSMs. The protocol:
(§1) Priming of PMNs by synthetic PSMs was determined by increased surface expression of CD11b and gp91phox (granule exocytosis). PMNs were incubated with 10-10,000 ng/ml PSM, 10 μM fMLP, 10 ng/ml lipopolysaccharide, or 10 μg/ml lipoteichoic acid in 96-well tissue culture plates at 37° C. with rotation for 60 minutes. The assay was terminated by centrifuging cells at 4° C. for 8 minutes at 350×g. Cells were washed twice in cold Dulbecco's phosphate-buffered saline and stained with and isotype control antibody (BD Biosciences) or those specific for CD11b (mAb 44, BD Biosciences) or gp91phox (mAb 7D533). Propidium iodide (0.5 μg/ml) was used to identify dead cells. PMNs were analyzed on a FACSCalibur flow cytometer (Becton Dickinson) and dead cells were excluded with a single gate. Percent positive neutrophils were determined with a marker defined by the boundary of the isotype-matched control antibody.
as §1, with “10-10000” for “10-10,000”, “7D5).” for “7D533).”
Human neutrophil assays: Human neutrophil isolation, chemotaxis, calcium ion flux, priming, lysis assays, and measurement of IL-8 production were performed as described in Example 2.

Assay [2] relates to human neutrophils. As to the kind of experiment: Interaction of synthetic PSMs with human neutrophils (overall pro-inflammatory activity). The assay is classed as cell-based. The note with it: synthetic PSM peptides, comparison among PSMs. As to the method:
Neutrophils were subjected to a brief hypotonic shock with pyrogen-free water (Sigma), washed, and suspended at 5×10^6 cells/ml in HBSS containing 0.05% human serum albumin (HSA; CLB). Chemotaxis of neutrophils was determined by using fluorescently-labeled neutrophils that migrated through a membrane fitted into an insert of a 24-well microtiter plate transwell system (Costar) containing a prewetted 3-μm-pore-size polycarbonate filter as described (de Haas et al., J Exp Med 199, 687-95, 2004). […] Calcium fluxes were analyzed with a FACScalibur (Becton Dickinson).
Priming of PMNs by synthetic PSMs was determined by increased surface expression of CD11b and gp91phox (granule exocytosis). […] PMNs were analyzed on a FACSCalibur flow cytometer (Becton Dickinson) and dead cells were excluded with a single gate. Percent positive neutrophils were determined with a marker defined by the boundary of the isotype-matched control antibody.
After isolation and washing, PMN or PBMC were resuspended in RPMI 1640 medium (Sigma) supplemented with 10% human serum, 2 mM L-glutamine, 100 U/ml penicillin, 100 μg/ml streptomycin, 2 mM sodium pyruvate, and 10 mM HEPES. […] After removal of supernatant, cells were resuspended in fresh culture medium, counted, and distributed into a 96-well cell culture plate at 100 μl and 2.5×10^5 cells per well. […]

Assay [3] can be described thus: Immunization of mice with synthetic PSM peptides, PSM-specific antibodies by ELISA. Format: in vivo, mice (BALB/c). Conditions: 50 μg s.c. with CFA, booster with IFA. As to the method:
In order to determine the immunogenicity of synthetic PSM peptides, mice (BALB/c, female, 6-8 weeks) were injected subcutaneously with 50 μg (100 μL) of each PSM peptide in sterile PBS emulsified with complete Freund's adjuvant (CFA) for primary immunization. A booster injection containing incomplete Freund's adjuvant (IFA) instead of CFA was given to the animals 14 days after the primary immunization. The control group of animals received injections of sterile PBS and adjuvants only. Three blood withdrawals were performed on each mouse. The first two blood samples were collected via retro-orbital route immediately before primary injection and before booster injection, respectively. All animals were sacrificed 21 days after booster injection for the terminal blood samples.
PSM-specific antibodies in mouse serum were determined by ELISA assays. Microtiter plates (Nunc 96-well flat-bottom MaxiSorp plates) were coated with 20 μg/ml of each synthetic PSM peptides in PBS plus 0.05% NaN3, and incubated overnight at 4° C. The plates were washed with PBS containing 0.05% Tween-20, and blocked for 1 hour at room temperature with 1% BSA (Sigma) and 0.05% NaN3 in PBS. Serum samples were diluted in assay diluent (Tris-buffered saline containing 0.1% BSA and 0.05% Tween-20, pH 7.2), and added to the washed wells at 100 μl/well for an incubation of 2 hours at room temperature. Plates were washed again and HRP-labeled goat anti-mouse IgG (R&D Systems) and goat anti-mouse IgM (Jackson ImmunoResearch Laboratory) were diluted in assay diluent and added to the plates at 100 μl/well for an incubation of 1 hour at room temperature in order to detect PSM specific mouse IgG and IgM, respectively. Plates were washed again and a substrate solution containing equal volume of Tetramethylbenzidine and H2O2 was added to the plates at 100 μl/well for color development. The reaction was terminated by adding 50 μl of 1 M H2SO4 to each well, and optical density (O.D.) was measured at 450 nm using an ELISA plate reader.
A general note: In an ELISA, binding on a coated surface is turned into a signal by an enzyme label.

fMEFVAKLFKFFKDLLGKFLGNN [PSMα3]: the “capacity to activate human neutrophils (surface exposure of gp91phox and CD11b)” value in the assay with human neutrophils [1] was “most potent”. In addition, the pro-inflammatory activity result in the assay with human neutrophils [2] is given as “most pronounced pro-inflammatory activity”. Besides, the “specific antibody production in vivo” value in assay [3] (N-formylated synthetic PSM peptides, BALB/c mice (FIG. 11)) was “most robust antibody production”; in assay [3] (non N-formylated synthetic PSM peptides, BALB/c mice (FIG. 12)), “strongest response”.
